According to PubChem BioAssay AID1259407 (Chemical Carcinogenesis Research Information System (CCRIS), 2018):
The source made the active and inactive calls. The rule behind the calls is not given here.

System: CCRIS mutagenicity, Ames/micronucleus/aberration tests
Assay: CCRIS mutagenicity studies
[1] = Test System: AMES SALMONELLA TYPHIMURIUM, Strain/Indicator: TA97, Metabolic Activation: NONE, Method: PREINCUBATION
[2] = Test System: AMES SALMONELLA TYPHIMURIUM, Strain/Indicator: TA98, Metabolic Activation: NONE, Method: PREINCUBATION
[3] = Test System: AMES SALMONELLA TYPHIMURIUM, Strain/Indicator: TA100, Metabolic Activation: NONE, Method: PREINCUBATION
[4] = Test System: AMES SALMONELLA TYPHIMURIUM, Strain/Indicator: TA1535, Metabolic Activation: NONE, Method: PREINCUBATION

In the case of `OCc1c2ccccc2cc2ccccc12`, the mutagenic call (End Point: In vitro chromosomal aberrations, Test System: Chinese hamster lung (CHL/IU) cells, Metabolic Activation: Rat, Liver, S9, Phenobarbital and 5,6-benzoflavone) is reported as “active; positive (structural changes) (weak response). precipitation in the culture medi”, the mutagenic call (Test System: AMES SALMONELLA TYPHIMURIUM, Strain/Indicator: TA98, Metabolic Activation: HUMAN, LIVER, CYTOSOL, PAPS, Method: PREINCUBATION) is reported as “active; positive” and the mutagenic call (Test System: Ames Salmonella typhimurium, Strain/Indicator: TA98, Metabolic Activation: None, Method: Preincubation) is reported as “inactive; negative”. The mutagenic call (Test System: Ames Salmonella typhimurium, Strain/Indicator: TA98, Metabolic Activation: Rat, Liver, S9, Sodium phenobarbital and 5,6-benzoflavone (10%), Method: Preincubation) was “inactive; negative”, the mutagenic call (Test System: Ames Salmonella typhimurium, Strain/Indicator: TA98, Metabolic Activation: Rat, Liver, S9, Sodium phenobarbital and 5,6-benzoflavone (30%), Method: Preincubation) was “inactive; negative” and the mutagenic call (Test System: Ames Salmonella typhimurium, Strain/Indicator: TA100, Metabolic Activation: None, Method: Preincubation) was “inactive; negative”. The mutagenic call (Test System: Ames Salmonella typhimurium, Strain/Indicator: TA100, Metabolic Activation: Rat, Liver, S9, Sodium phenobarbital and 5,6-benzoflavone (10%), Method: Preincubation) was “inactive; negative”, the mutagenic call (Test System: Ames Salmonella typhimurium, Strain/Indicator: TA100, Metabolic Activation: Rat, Liver, S9, Sodium phenobarbital and 5,6-benzoflavone (30%), Method: Preincubation) was “active; positive” and the mutagenic call (Test System: Ames Salmonella typhimurium, Strain/Indicator: TA1535, Metabolic Activation: None, Method: Preincubation) was “inactive; negative”. For the same molecule, the mutagenic call (Test System: Ames Salmonella typhimurium, Strain/Indicator: TA1535, Metabolic Activation: Rat, Liver, S9, Sodium phenobarbital and 5,6-benzoflavone (10%), Method: Preincubation) was “inactive; negative”, the mutagenic call (Test System: Ames Salmonella typhimurium, Strain/Indicator: TA1535, Metabolic Activation: Rat, Liver, S9, Sodium phenobarbital and 5,6-benzoflavone (30%), Method: Preincubation) was “inactive; negative” and the mutagenic call (Test System: Ames Salmonella typhimurium, Strain/Indicator: TA1537, Metabolic Activation: None, Method: Preincubation) was “inactive; negative”. For the same molecule, the mutagenic call (Test System: Ames Salmonella typhimurium, Strain/Indicator: TA1537, Metabolic Activation: Rat, Liver, S9, Sodium phenobarbital and 5,6-benzoflavone (10%), Method: Preincubation) was “active; positive (weak)”, the mutagenic call (Test System: Ames Salmonella typhimurium, Strain/Indicator: TA1537, Metabolic Activation: Rat, Liver, S9, Sodium phenobarbital and 5,6-benzoflavone (30%), Method: Preincubation) was “inactive; negative” and the mutagenic call (Test System: E. coli, Strain/Indicator: WP2uvrA/pKM101, Metabolic Activation: Rat, Liver, S9, Sodium phenobarbital and 5,6-benzoflavone (30%), Method: Preincubation) was “inactive; negative”.
In the case of `CCC(O)CN` (stereo not given), the mutagenic call (Test System: AMES SALMONELLA TYPHIMURIUM, Strain/Indicator: TA97, Metabolic Activation: HAMSTER, LIVER, S-9, AROCLOR 1254 (10 OR 30%), Method: PREINCUBATION) is reported as “inactive; negative”, the mutagenic call [1] is reported as “inactive; negative” and the mutagenic call (Test System: AMES SALMONELLA TYPHIMURIUM, Strain/Indicator: TA97, Metabolic Activation: RAT, LIVER, S-9, AROCLOR 1254 (10 OR 30%), Method: PREINCUBATION) is reported as “inactive; negative”. The mutagenic call (Test System: AMES SALMONELLA TYPHIMURIUM, Strain/Indicator: TA98, Metabolic Activation: HAMSTER, LIVER, S-9, AROCLOR 1254 (10 OR 30%), Method: PREINCUBATION) was “inactive; negative”, the mutagenic call [2] was “inactive; negative” and the mutagenic call (Test System: AMES SALMONELLA TYPHIMURIUM, Strain/Indicator: TA98, Metabolic Activation: RAT, LIVER, S-9, AROCLOR 1254 (10 OR 30%), Method: PREINCUBATION) was “inactive; negative”. The mutagenic call (Test System: AMES SALMONELLA TYPHIMURIUM, Strain/Indicator: TA100, Metabolic Activation: HAMSTER, LIVER, S-9, AROCLOR 1254 (10 OR 30%), Method: PREINCUBATION) was “inactive; negative”, the mutagenic call [3] was “inactive; negative” and the mutagenic call (Test System: AMES SALMONELLA TYPHIMURIUM, Strain/Indicator: TA100, Metabolic Activation: RAT, LIVER, S-9, AROCLOR 1254 (10 OR 30%), Method: PREINCUBATION) was “inactive; negative”. For the same molecule, the mutagenic call (Test System: AMES SALMONELLA TYPHIMURIUM, Strain/Indicator: TA1535, Metabolic Activation: HAMSTER, LIVER, S-9, AROCLOR 1254 (10 OR 30%), Method: PREINCUBATION) was “inactive; negative”, the mutagenic call [4] was “inactive; negative” and the mutagenic call (Test System: AMES SALMONELLA TYPHIMURIUM, Strain/Indicator: TA1535, Metabolic Activation: RAT, LIVER, S-9, AROCLOR 1254 (10 OR 30%), Method: PREINCUBATION) was “inactive; negative”.
In the case of `O=[N+]([O-])c1cc2c3c(ccc4cc([N+](=O)[O-])cc(c43)CC2)c1`, the mutagenic call (Test System: AMES SALMONELLA TYPHIMURIUM, Strain/Indicator: TA98(1,8-DNP6), Metabolic Activation: NONE, Method: STANDARD PLATE) is reported as “active; positive”, the mutagenic call (Test System: AMES SALMONELLA TYPHIMURIUM, Strain/Indicator: TA98(NR), Metabolic Activation: NONE, Method: STANDARD PLATE) is reported as “active; positive” and the mutagenic call (Test System: AMES SALMONELLA TYPHIMURIUM, Strain/Indicator: TA98, Metabolic Activation: NONE, Method: STANDARD PLATE) is reported as “active; positive”.
For `CC(=O)N(O)c1ccc2ccccc2c1`, the mutagenic call [2] was “inactive; negative”, the mutagenic call (Test System: AMES SALMONELLA TYPHIMURIUM, Strain/Indicator: TA98, Metabolic Activation: RAT, LIVER, CYTOSOL, Method: PREINCUBATION) was “inactive; negative” and the mutagenic call (Test System: AMES SALMONELLA TYPHIMURIUM, Strain/Indicator: TA98, Metabolic Activation: RAT, LIVER, MICROSOMES, Method: PREINCUBATION) was “active; positive”.
In the case of `N#CC(O)c1ccccc1` (stereo not given), the mutagenic call (Test System: AMES SALMONELLA TYPHIMURIUM, Strain/Indicator: TA97, Metabolic Activation: HAMSTER, LIVER, S-9, AROCLOR 1254 (10%), Method: PREINCUBATION) is reported as “inactive; negative”, the mutagenic call (Test System: AMES SALMONELLA TYPHIMURIUM, Strain/Indicator: TA97, Metabolic Activation: HAMSTER, LIVER, S-9, AROCLOR 1254 (30%), Method: PREINCUBATION) is reported as “inactive; negative” and the mutagenic call [1] is reported as “inactive; negative”. The mutagenic call (Test System: AMES SALMONELLA TYPHIMURIUM, Strain/Indicator: TA97, Metabolic Activation: RAT, LIVER, S-9, AROCLOR 1254 (10%), Method: PREINCUBATION) was “inactive; negative”, the mutagenic call (Test System: AMES SALMONELLA TYPHIMURIUM, Strain/Indicator: TA97, Metabolic Activation: RAT, LIVER, S-9, AROCLOR 1254 (30%), Method: PREINCUBATION) was “inactive; negative” and the mutagenic call (Test System: AMES SALMONELLA TYPHIMURIUM, Strain/Indicator: TA98, Metabolic Activation: HAMSTER, LIVER, S-9, AROCLOR 1254 (10%), Method: PREINCUBATION) was “inactive; negative”. The mutagenic call (Test System: AMES SALMONELLA TYPHIMURIUM, Strain/Indicator: TA98, Metabolic Activation: HAMSTER, LIVER, S-9, AROCLOR 1254 (30%), Method: PREINCUBATION) was “inactive; negative”, the mutagenic call [2] was “inactive; negative” and the mutagenic call (Test System: AMES SALMONELLA TYPHIMURIUM, Strain/Indicator: TA98, Metabolic Activation: RAT, LIVER, S-9, AROCLOR 1254 (10%), Method: PREINCUBATION) was “inactive; negative”. For the same molecule, the mutagenic call (Test System: AMES SALMONELLA TYPHIMURIUM, Strain/Indicator: TA98, Metabolic Activation: RAT, LIVER, S-9, AROCLOR 1254 (30%), Method: PREINCUBATION) was “inactive; negative”, the mutagenic call (Test System: AMES SALMONELLA TYPHIMURIUM, Strain/Indicator: TA100, Metabolic Activation: HAMSTER, LIVER, S-9, AROCLOR 1254 (10%), Method: PREINCUBATION) was “inactive; negative” and the mutagenic call (Test System: AMES SALMONELLA TYPHIMURIUM, Strain/Indicator: TA100, Metabolic Activation: HAMSTER, LIVER, S-9, AROCLOR 1254 (30%), Method: PREINCUBATION) was “inactive; negative”. The mutagenic call [3] was “inactive; negative”, the mutagenic call (Test System: AMES SALMONELLA TYPHIMURIUM, Strain/Indicator: TA100, Metabolic Activation: RAT, LIVER, S-9, AROCLOR 1254 (10%), Method: PREINCUBATION) was “inactive; negative” and the mutagenic call (Test System: AMES SALMONELLA TYPHIMURIUM, Strain/Indicator: TA100, Metabolic Activation: RAT, LIVER, S-9, AROCLOR 1254 (30%), Method: PREINCUBATION) was “inactive; negative”. The mutagenic call (Test System: AMES SALMONELLA TYPHIMURIUM, Strain/Indicator: TA1535, Metabolic Activation: HAMSTER, LIVER, S-9, AROCLOR 1254 (10%), Method: PREINCUBATION) was “inactive; negative”, the mutagenic call (Test System: AMES SALMONELLA TYPHIMURIUM, Strain/Indicator: TA1535, Metabolic Activation: HAMSTER, LIVER, S-9, AROCLOR 1254 (30%), Method: PREINCUBATION) was “inactive; negative” and the mutagenic call [4] was “inactive; negative”. For the same molecule, the mutagenic call (Test System: AMES SALMONELLA TYPHIMURIUM, Strain/Indicator: TA1535, Metabolic Activation: RAT, LIVER, S-9, AROCLOR 1254 (10%), Method: PREINCUBATION) was “inactive; negative” and the mutagenic call (Test System: AMES SALMONELLA TYPHIMURIUM, Strain/Indicator: TA1535, Metabolic Activation: RAT, LIVER, S-9, AROCLOR 1254 (30%), Method: PREINCUBATION) was “inactive; negative”.
`CC(Br)C(Br)CCl` (stereo not given) was tested, and the mutagenic call (Test System: AMES SALMONELLA TYPHIMURIUM, Strain/Indicator: TA100, Metabolic Activation: RAT, LIVER, MICROSOMES, PHENOBARBITAL, Method: PREINCUBATION) was “active; positive” and the mutagenic call (Test System: AMES SALMONELLA TYPHIMURIUM, Strain/Indicator: TA100, Metabolic Activation: RAT, LIVER, MICROSOMES, Method: PREINCUBATION) was “active; positive”.
